Consider one compound from ChEMBL document CHEMBL4000165, “Chemosensitizing effect of Paris Saponin I on Camptothecin and 10-hydroxycamptothecin in lung cancer cells via p38 MAPK, ERK, and Akt signaling pathways” (Eur J Med Chem, 2017).

The source made the active and inactive calls. The rule behind the calls is not given here.

The subject of the assay is NCI-H446. As to the kind of experiment: Induction of apoptosis in human NCI-H446 cells assessed as increase in cleaved PARP expression at 0.6 uM in presence of CPT by Western blot method. The class given is functional, cell-based.

For `C[C@@H]1CC[C@@]2(OC1)O[C@H]1C[C@H]3[C@@H]4CC=C5C[C@@H](O[C@@H]6O[C@H](CO)[C@@H](O[C@@H]7O[C@@H](CO)[C@H](O)[C@H]7O)[C@H](O)[C@H]6O[C@@H]6O[C@@H](C)[C@H](O)[C@@H](O)[C@H]6O)CC[C@]5(C)[C@H]4CC[C@]3(C)[C@H]1[C@@H]2C`, the result was Active.
